Laboratory results published in patent US20180070870A1, “Autonomous Sweat Extraction and Analysis Using a Fully-Integrated Wearable Platform” (The Board of Trustees of the Leland Stanford Junior …, priority 2016, published 2018).

System: sweat secretion
Assay: Induced sweat rate profiles stimulated by cholinergic agonist hydrogels under iontophoresis, measured with a sweat rate sensor
Assay type: in vivo, human
Conditions: iontophoresis 2 mA for 5 minutes
Protocol: Bars represent values for response latency (time in seconds to onset of secretion from start of iontophoresis), response duration (total time in minutes of secretion above baseline, measurements stopped at 60 minutes), peak secretory rate in response to stimulation, time to reach peak secretory rate and time spent secreting at the peak rate. […] By modulating the formulation of the compounds that are loaded into the iontophoresis hydrogel, we can achieve different patterns of sweat secretion rate. We characterized the induced sweat rate profiles as stimulated by three different cholinergic agonist hydrogels (acetylcholine, methacholine and pilocarpine) each at two different concentrations. For this characterization step, 2 mA of current over duration of 5 minutes was applied using a pair of ring-shaped electrodes (WR Medical Electronics Co., MN, area: 4.3 cm2), with the sweat rate sensor (Q-sweat, WR Medical Electronics Co., MN) mounted on the positive electrode, sealing the stimulated area. […] This pattern is suitable for the case where periodic sweat sampling with short intervals is required. […] To retrieve the induced sweat rate information, immediately after each stimulation step, the stimulated area was wiped dry and sealed with the sweat rate sensor. After each characterization step, the same pair of hydrogels were reused for the subsequent stimulation. […]

## CC(=O)OC(C)C[N+](C)(C)C (centres unmarked) [methacholine]
  share of the secretion period spent at about the peak rate: about half

## CC[C@@H]1C(=O)OC[C@@H]1Cc1cncn1C [pilocarpine]
  share of the secretion period spent at about the peak rate: about half
